Earlier results in patent publication EP4484428A1, “CUCURBITURIL DERIVATIVES FOR RADIOLABELING, PROCESSES OF PRODUCTION AND USES THEREOF” (Université de Bourgogne, priority 2023, dated 2025).

Tested on: (strept)avidin
Settings: biotin-(strept)avidin pair, association constant

## O=C(O)CCCC[C@@H]1SC[C@@H]2NC(=O)N[C@@H]21 [biotin]
  affinity (K): 10^15 M^-1
